For assay [1], the target named is T1, A2 receptors of human platelets (Homo sapiens, UniProt P29274). The following applies: cited from earlier work.
Another assay has as its system A1 adenosine receptors. The following applies: literature; cited from earlier work.
Assay [2] deals with A2 receptors of PC12 cells. The following applies: cited from earlier work.
Assay [3] concerns adenosine receptor in human fibroblast cell line. Conditions: cited from earlier work.
Assay [4] deals with T1, A2 receptors of human platelets. In words: Antagonism of NECA-induced stimulation of adenylate cyclase activity of human platelet membranes. Format: biochemical. Conditions: for antagonist potency at platelet A2 receptor: human platelet membranes, NECA-stimulated adenylate cyclase, result in words. The protocol:
(§1) Human platelet, rat pheochromocytoma (PC12) cell, rat fat cell and rat cerebral cortex membranes were prepared as described (4,5,6). Adenylate cyclase activity and binding [^3 H]PIA to cerebral cortex membranes were determined essentially as described (4,5,6). KB values for the compounds were determined as described (4). […] EC50 and IC50 values for the agonists were obtained from the concentration-response curves by linear regression after logit-log transformation. KB values of the antagonists were calculated using the Schild equation KB =C/(CR-1), where C denotes the concentration of the competitor and CR the ratio of the EC50 and IC50 values in the presence and absence, respectively, of the competitor. IC50 of the compounds for inhibition of [^3 H]PIA binding to cerebral cortex membranes were transformed into Ki values as described (6).
In these cells, A2 receptor-mediated stimulation of adenylate cyclase results in an inhibition of aggregation (5,7).

Assay [5] relates to A2 receptors of rat pheochromocytoma (PC12) cells. In words: Antagonism of NECA-induced stimulation of adenylate cyclase activity of PC12 cell membranes. Format: biochemical. The following applies: NECA-stimulated adenylate cyclase, result in words. The protocol:
as §1

The target in assay [6] is T2, A1 receptors of rat fat cells (Rattus norvegicus, UniProt P25099).
T2 sequence (P25099 1-326): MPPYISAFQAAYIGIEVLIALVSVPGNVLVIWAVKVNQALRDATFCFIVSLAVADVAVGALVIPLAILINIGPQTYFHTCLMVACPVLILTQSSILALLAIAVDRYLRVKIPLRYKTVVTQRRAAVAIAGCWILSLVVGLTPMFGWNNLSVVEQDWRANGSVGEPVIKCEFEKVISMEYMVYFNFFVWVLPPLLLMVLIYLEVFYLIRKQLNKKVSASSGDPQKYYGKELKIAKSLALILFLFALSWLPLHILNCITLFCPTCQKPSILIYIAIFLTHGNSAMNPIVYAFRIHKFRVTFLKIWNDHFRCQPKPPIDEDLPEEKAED
In words: Antagonism of R-PIA-induced inhibition of rat fat cell adenylate cyclase activity. In kind it is biochemical. Conditions: rat fat cell membranes, result in words. The protocol:
as §1

A further assay concerns coronary A2 receptors. The following applies: cited from earlier work.
The test system of assay [7] is A2 adenosine receptor (guinea pig taenia caecum). As to the kind of experiment: Antagonism of adenosine agonists in isolated guinea pig taenia caecum (contractile tone). Conditions: for antagonism of adenosine agonists in taenia caecum: guinea pig taenia caecum relaxation; for sensitization of the tissue: guinea pig taenia caecum, high concentrations. The protocol: Taenia from the guinea pig caecum were cut into lengths of 1.5-2 cm. The tissues were suspended in a 20 ml organ bath containing de Jalon's solution that was gassed with 95% O2 + 5% CO2 and maintained at 31° C. The resting tension was 1.5 g. The contractile response was measured isotonically.
(§2) The ability of the compounds to antagonize the effects of agonists was analyzed using modified Schild plots.

Assay [8] deals with adenosine receptors (A1: heart rate; A2: blood pressure). In words: In vivo test on heart rate, blood pressure and ECG in anesthetized rats. On the set-up: species or system rat. The text has this: Drug injections were made intravenously through a jugular cannula.
For assay [9], the target named is T3, A1 adenosine receptor (guinea pig atrium) (Cavia porcellus, UniProt P47745).
T3 construct: The left atria from male guinea pigs were isolated; from tissue; host or cells: left atria of male guinea pigs
T3 sequence (P47745 1-326): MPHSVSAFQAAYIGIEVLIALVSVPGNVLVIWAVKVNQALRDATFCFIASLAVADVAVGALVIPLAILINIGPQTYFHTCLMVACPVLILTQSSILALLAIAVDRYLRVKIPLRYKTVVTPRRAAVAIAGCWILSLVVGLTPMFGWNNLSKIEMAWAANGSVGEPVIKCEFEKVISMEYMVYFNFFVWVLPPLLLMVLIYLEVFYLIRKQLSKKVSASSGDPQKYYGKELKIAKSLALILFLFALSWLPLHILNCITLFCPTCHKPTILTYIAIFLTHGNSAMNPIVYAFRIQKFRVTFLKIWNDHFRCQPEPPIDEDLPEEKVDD
In words: Antagonism of adenosine agonists in isolated guinea pig left atrium (force of contraction). The following applies: for antagonism of adenosine agonists in atria: guinea pig atria, result in words. The protocol:
The left atria from male guinea pigs were isolated, suspended between two punctate electrodes, and placed in a 20 ml organ bath that contained Krebs-Hensileit solution that was continuously gassed with 95% O2 + 5% CO2 and maintained at 31° C. The resting tension was one gram. Theatria were stimulated electrically at 1 hz, 1 ms duration pulses at supramaximal voltage. The force of contraction was recorded isometrically.
as §2

A further assay has as its system A2 receptors. The following applies: literature; cited from earlier work.
In a further assay the target is T4, A1 receptors (Rattus norvegicus, UniProt P25099).
T4 sequence (P25099 1-326): T2 sequence (P25099 1-326)
As to the kind of experiment: Activity at A1 adenosine receptors (overall, fat cells and brain membranes). In kind it is biochemical. Conditions: discussion, fat cell and brain data. The protocol:
as §1

The test system of assay [10] is A1 and A2 adenosine receptors. In words: Activity at adenosine receptors, A1 versus A2 selectivity (overall). Conditions: in words. Format: biochemical. The protocol:
as §1

Assay [11] has as its target T5, A1 receptors of rat cerebral cortex membranes (Rattus norvegicus, UniProt P25099).
T5 sequence (P25099 1-326): T2 sequence (P25099 1-326)
As to the kind of experiment: Inhibition of [3H]PIA binding to rat cerebral cortex membranes. The protocol: as §1

By Ki is commonly meant a measure of affinity in units of concentration, obtained from inhibition or displacement.

T1 sequence (P29274 whole entry): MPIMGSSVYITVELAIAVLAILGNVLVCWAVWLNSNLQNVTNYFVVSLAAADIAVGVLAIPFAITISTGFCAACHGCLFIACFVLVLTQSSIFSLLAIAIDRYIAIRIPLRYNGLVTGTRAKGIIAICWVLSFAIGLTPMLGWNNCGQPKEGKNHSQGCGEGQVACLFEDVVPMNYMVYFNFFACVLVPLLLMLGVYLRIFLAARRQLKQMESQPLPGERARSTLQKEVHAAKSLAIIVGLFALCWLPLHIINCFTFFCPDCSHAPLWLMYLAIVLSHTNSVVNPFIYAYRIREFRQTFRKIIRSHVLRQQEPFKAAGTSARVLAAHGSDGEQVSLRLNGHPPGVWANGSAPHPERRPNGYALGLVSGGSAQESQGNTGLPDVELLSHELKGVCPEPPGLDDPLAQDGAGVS

Take `C[C@H](Cc1ccccc1)Nc1ncnc2c1ncn2[C@@H]1O[C@H](CO)[C@@H](O)[C@H]1O` [R-PIA, N^6 -R-1-phenyl-2-propyladenosine]: the “agonist potency at platelet A2 receptors, in words” value in [1] was “more potent of the N^6 -substituted adenosines”. Besides, the “affinity/activity at A1 receptors, in words” value (“affinity/activity” for short) in the assay with A1 adenosine receptors is listed as “very high affinity for A1 adenosine receptors”. Besides, the “agonist potency at PC12 A2 receptors, in words” value in assay [2] is on record as “more potent of the series”.
Take `Nc1ncnc2nc[nH]c12` [Example 1, Adenine, reference compound]: the “specific, competitive antagonism of cyclic AMP accumulation” value in [3] (adenosine-induced, human fibroblast cell line) is reported as “specific, competitive antagonist”. For the same molecule, the inhibition constant Ki in [3] (competitive antagonism of adenosine-induced cyclic AMP accumulation, human fibroblast cell line) is 200 µM. In assay [4], the “antagonist potency at platelet A2 receptor” value is given as “very weak antagonist”. Moreover, the “effect on basal adenylate cyclase activity” value in assay [4] (human platelets, data not shown) is “does not affect basal adenylate cyclase activity”. For the same molecule, the “antagonist potency at A2 receptor of PC12 cells” value in [5] was “very weak antagonist”. For the same molecule, the “antagonist potency at A1 receptors of fat cells” value in [6] was “does not affect R-PIA-induced inhibition of fat cell adenylate cyclase activity”.
With `OC[C@H]1O[C@@H](n2cnc3c(NC4CCC4)ncnc32)[C@H](O)[C@@H]1O` [N^6 -cyclobutyl-], in assay [1], the “agonist potency at platelet A2 receptors, in words” value is given as “more potent of the N^6 -substituted adenosines”. The “agonist potency at PC12 A2 receptors, in words” value in assay [2] is listed as “more potent of the series”.
For `OC[C@H]1O[C@@H](n2cnc3c(Oc4ccccc4)ncnc32)[C@H](O)[C@@H]1O` [6-phenoxypurine riboside], in the assay with coronary A2 receptors, the “activity at coronary A2 receptors” value is “inactive or nearly so”.
As for `Cn1cnc2c(N[C@H]3C[C@H]4CC[C@@H]3C4)ncnc21` (relative stereo) [Example 22, N^6-(endonorbornyl)-9-MA], in assay [7], the “antagonism of adenosine agonists in taenia caecum” value was “did not competitively antagonize the effects of adenosine agonists” and the “sensitization of the tissue” value is listed as “some sensitization of the tissue”. Also, in [8], the cardioselectivity in vivo result is on record as “cardioselective adenosine receptor antagonist in vivo”. In addition, in assay [8] (i.v.), the “effect on adenosine-induced changes of blood pressure, heart rate and P-R interval” value is recorded as “attenuated the effects of subsequently administered adenosine on all parameters measured”. The “effect on adenosine-induced heart block” value in assay [8] (i.v., high doses of adenosine) is reported as “substantially reduced”. For the same molecule, in assay [8] (i.v., prior administration), the “effect on NECA action on the heart” value is on record as “attenuated the effects of NECA on the heart” and the “effect on NECA-induced decrease in blood pressure” value is given as “minimally affecting the NECA-induced decrease in blood pressure”. The “antagonism of adenosine agonists in atria” value (shortened to “antagonism … in atria”) in [9] is “competitive antagonists”. For the same molecule, the “antagonism … in atria” value in assay [9] (listed as Ex. 22) was “most potent antagonist”. Besides, in assay [9] (read-out: Affinity constants (pKB) (converted)), the Kb was 0.525 µM.
Take `CCNC(=O)[C@H]1O[C@@H](n2cnc3c(N)ncnc32)[C@H](O)[C@@H]1O` [NECA, 5'-N-ethylcarboxamido-adenosine]: the “potency at A2 receptors, in words” value in the assay with A2 receptors is “more potent than N^6 -substituted analogs at A2 receptors”.
`Cn1cnc2c(NC3(C)CCCC3)ncnc21` [Example 5, N^6 -Methylcyclopentyl-9-MA]: the “antagonist potency at platelet A2 receptor” value in assay [4] is reported as “less potent than the parent cyclopentyl analog”. In addition, the “antagonist potency at A2 receptor of PC12 cells” value in [5] is “reduces potency in PC12 cells”. Moreover, the “activity at A1 receptors, in words” value at A1 receptors is listed as “reduces activity at A1 receptors”. Besides, the “receptor selectivity A1 versus A2” value in [10] is reported as “selective for receptors”. In assay [6], the “antagonist potency at A1 receptors of fat cells” value is “less potent”.
For `CNc1ncnc2c1ncn2[C@@H]1O[C@H](CO)[C@@H](O)[C@H]1O` [N^6 -methyladenosine], in the assay with A1 adenosine receptors, the “affinity/activity” value is recorded as “low activity”.
Regarding `Cn1cnc2c(N)ncnc21` [Example 2, 9-Methyladenine, reference compound], the “potency increase by methylation of adenine at the 9-position” value in [3] (relative to adenine) is reported as “about 4 fold”. In addition, in [4], the “antagonist potency at platelet A2 receptor” value was “more potent than the adenine itself”. Also, in [6], the “antagonist potency at A1 receptors of fat cells” value was “antagonizes the effect of R-PIA”.
Take `OC[C@H]1O[C@@H](n2cnc3c(NCc4ccccc4)ncnc32)[C@H](O)[C@@H]1O` [N^6 -benzyladenosine]: in assay [1], the “agonist potency at platelet A2 receptors, in words” value is “more potent of the N^6 -substituted adenosines”. Moreover, in the assay with A1 adenosine receptors, the “affinity/activity” value was “low activity”.
Consider `OC[C@H]1O[C@@H](n2cnc3c(NCCc4ccsc4)ncnc32)[C@H](O)[C@@H]1O` [N^6-2-(3-thienylethyl)-], for which the “agonist potency at platelet A2 receptors, in words” value in assay [1] is on record as “more potent of the N^6 -substituted adenosines”.
In the case of `CC1(Nc2ncnc3c2ncn3[C@@H]2O[C@H](CO)[C@@H](O)[C@H]2O)CCCC1` [N^6-(1-methylcyclopentyl)adenosine], in the assay on A1 adenosine receptors, the “affinity/activity” value is “reduced compared to N^6 -cyclopentyladenosine”.
As for `Cn1cnc2c(NC3CCCC3)ncnc21` [Example 4, N^6 -Cyclopentyl-9-MA], in [4], the “antagonist potency at platelet A2 receptor” value is “more potent than 9-methyladenine itself”. In addition, in assay [4] (human platelets versus rat PC12 cells), the “potency at platelet A2 receptor relative to PC12 A2 receptor” value was “more potent at the platelet A2 receptor than at the PC12 A2 receptor”. Besides, in assay [7], the “antagonism of adenosine agonists in taenia caecum” value is recorded as “did not competitively antagonize the effects of adenosine agonists” and the “sensitization of the tissue” value was “some sensitization of the tissue”. The “antagonism … in atria” value in assay [9] is on record as “competitive antagonists”. Besides, the “inhibition of [3H]PIA binding (Ki), in words” value in [11] was “more potent”. Moreover, the “activity at A1 receptors, in words” value at A1 receptors is listed as “most potent of N^6 -substituted 9-methyladenines at A1 receptors”. The “potency at adenosine receptors (subtype not stated)” value in [10] is reported as “more potent than 9-methyladenine”. Further, the “receptor selectivity A1 versus A2” value in [10] (listed as N^6 -Cyclopentyl) is listed as “selective for A1 receptors”. The “receptor selectivity A1 versus A2” value in assay [10] (listed as cyclopentyl-) is given as “selective for receptors”. Also, the “antagonist potency at A1 receptors of fat cells” value in assay [6] was “more potent than the parent compound 9-methyladenine”.
